Laboratory results as given in patent US20240321457A1, “SYSTEMS FOR AND METHODS OF TREATMENT SELECTION” (THE REGENTS OF THE UNIVERSITY OF CALIFORNIA, priority 2020, published 2024).

How the values were obtained:
Gαi = experiment: NanoBiT Gαi1 dissociation assay (split luciferase); assay type: cell-based; conditions: 60 minutes
Method: The NanoBiT G-protein dissociation assay, based on a split-luciferase system, was performed as previously described with some modifications (Inoue et al., 2019). All DNA constructs were provided by Dr. Asuka Inoue (Tohoku University, Japan). NanoBiT plasmids (pCAGGS) include Gαi1-LgBiT, Gβ1-native, and SmBiT-Gγ2 (CAAX C68S mutant). Gαi-DREADD (pcDNA3.1) was used as a synthetic Gαi-coupled GPCR. Briefly, CAL-33 and HET-1A cells were seeded on poly-D-lysine coated (Sigma, Cat #P7280), opaque, white 96-well plates (Falcon Cat #353296). The following day cells were transfected with NanoBiT and receptor plasmids using Lipofectamine 3000 (ThermoFisher Scientific, Cat #L3000008) according to manufacturer recommendations for a 12-well scale (10 μL transfection mix to each well). The NanoBiT plasmids were mixed at a ratio of 100 ng Gαi1-LgBiT, 500 ng Gβ1, 500 ng SmBiT-Gγ2, and 200 ng of receptor if needed. For gene knockdown experiments, 10 pmol of pooled siControl (Dharmacon, Cat #D-001810-10-20), siFGFR3 (Mission siRNA, Cat #SIHK0780, SIHK0781, SIHK0782), or siDaple (Dharmacon, Cat #L-033364-01-0005) was included in the plasmid mix. Media was changed the following day. Two days after transfection, media was aspirated from each well and washed once with HBSS. Cells were incubated in HBSS with a final concentration of 5 μM native coelenterazine (Biotium, Cat #10110-1) for 30 minutes at room temperature protected from light. Basal luminescence was read and ligand prepared for final concentrations of 10 ng/mL human bFGF (Roche Cat #11123149001) and 10 μM clozapine-N-oxide (Cayman Chemical, Cat #NC1044836). After ligand addition, luminescence was read in kinetic loops (each well ˜every 30 seconds) for 60 minutes total (Tecan Spark). Raw luminescent values were normalized to the corresponding basal value for each well and subsequently to the mean vehicle ratio (raw/basal) at time 0. Significance was calculated using a one-way ANOVA at the 60 minute time point.
To test this idea, a split luciferase assay (Gαi NanoBiT) was used, in which signal is lost upon activation of Gαi and dissociation from Gβγ (FIG. 15C and FIG. 16A). As a control, an engineered Designer Receptor Exclusively Activated by Designer Drugs (DREADD) receptor was first transfected, and the resulting cell population stimulated with the DREADD ligand, clozapine-N-oxide (CNO).
Referring to FIG. 15C, NanoBiT biosensor measures Gαi activation through dissociation of the luciferase split between Gα and Gβγ. CNO mediates canonical GPCR signaling through the synthetic Gαi-coupled DREADD receptor. FGF mediates HNSCC-specific signaling through FGFR3 and Daple.

[1] = system: solid tumors with FGFR mRNA overexpression; conditions: phase I trials; cited from earlier work
CAL-33 cells = experiment: Scratch migration assay; assay type: cell-based; conditions: fibronectin-plated CAL-33 cells; 10 ng/mL bFGF, 24 hours; versus vehicle
Method: CAL-33 cells were seeded on 12-well plates coated with 10 μg/mL fibronectin in PBS (Sigma Aldrich, Cat #F2006-1MG). Once cells reached confluence, a vertical scratch was made with a pipette tip and washed well with PBS before adding serum-free media. Cells were stimulated with vehicle, 10 ng/mL bFGF, or 1% serum for 24 hours. Images were taken at the 0 and 24 hour time points (2× magnification) and the scratch area was quantified using ImageJ. Percent scratch closure was calculated for each well and significance assessed using a one-way ANOVA.
Referring to FIG. 15H, a vertical scratch was introduced to fibronectin-plated CAL-33 cells. Images were taken at 0 and 24 hours after FGF stimulation (scale bar=200 μm). (I) Quantification of replicate scratch closure assays from panel H (*P<0.05 when compared with the vehicle-treated group).

PAK1/2 phosphorylation = PAK1/2 phosphorylation immunoblot after FGF stimulation; assay type: cell-based; conditions: FGF stimulation 0, 5, 10, 30, 60 minutes
Method: (§1) CAL-33 and HET-1A cells were seeded on poly-D-lysine-coated 6-well plates. Cells were transfected with siRNA using Lipofectamine RNAiMAX (Thermo Fisher Scientific, Cat #100014472) according to manufacturer recommendations. After overnight serum starvation, cells were stimulated with vehicle, 10 ng/mL bFGF, or 10 μM CNO. Cells were washed once with PBS and lysed in RIPA buffer (50 mM Tris-HCl pH 6.8, 150 mM NaCl, 1% NP-40, 0.5% sodium deoxycholate, 0.1% SDS) with protease and phosphatase inhibitors (Bimake, Cat #B14001, B15001-A/B). Lysates were briefly sonicated and cleared by centrifugation before boiling in Laemmli sample buffer (Bio-Rad Cat #1610747). After separation on 10% acrylamide gels and transfer to PVDF membranes, membranes were blocked with 2% BSA in TBST before incubating with antibodies. […]
Referring to FIG. 15G, PAK1/2 autophosphorylation was measured by immunoblot analysis over a time course of FGF stimulation (0, 5, 10, 30, 60 minutes) in CAL-33 and HET-1A cells.

ERK phosphorylation = ERK phosphorylation immunoblot after FGF stimulation; assay type: cell-based; conditions: FGF 10 ng/mL, time course
Method: as §1
Referring to FIG. 16C, ERK phosphorylation over a time course was measured by immunoblotting in CAL-33 and HET-1A cells stimulated with FGF (10 ng/mL).

## C[N+]1([O-])CCN(C2=Nc3cc(Cl)ccc3Nc3ccccc32)CC1 [CNO, clozapine-N-oxide]
Gαi; CAL-33 cells expressing Gαi NanoBiT and DREADD receptor, CNO 10 μM
  Gαi activation (loss of luciferase signal): Robust Gαi activation
Gαi; HET-1A cells expressing Gαi NanoBiT and DREADD receptor, CNO 10 μM
  Gαi activation (loss of luciferase signal): Robust Gαi activation

## COCc1c(-c2cc3cc(C)cc(OC)c3s2)c2c(N)ncnn2c1CN1CCNC(=O)C1 [rogaratinib]
[1]
  objective response rate: 67%

## FGF: human bFGF (Roche), fibroblast growth factor used as ligand for stimulation
CAL-33 cells
  cell migration (scratch closure): statistically significant increase
PAK1/2 phosphorylation; CAL-33 cells
  phosphorylation of PAK1/2: results in downstream phosphorylation of PAK1/2
PAK1/2 phosphorylation; HET-1A cells
  phosphorylation of PAK1/2: not observed
ERK phosphorylation; CAL-33 cells
  ERK phosphorylation: rapidly induced ERK phosphorylation
ERK phosphorylation; HET-1A cells
  ERK phosphorylation: rapidly induced ERK phosphorylation
Gαi; CAL-33 cells, Gαi NanoBiT, FGF 10 ng/mL
  Gαi activation (loss of luciferase signal): induce Gαi activation
Gαi; HET-1A cells, Gαi NanoBiT, FGF 10 ng/mL
  Gαi activation (loss of luciferase signal): no such activation occurred
